A short description of this data set: solubility of the fatty acid salt in water. Format: physicochemical. The following applies: for solubility in water: 24°C. As to the method: 200 mg of D-Ser^1 -Lys^17,18 -β^1-18 -corticotropin-Lys^18 -amide hexaacetate hydrate are dissolved in 24 ml of ethanol and 1.6 ml of water, and thereafter a solution of 88 mg of lauric acid in 10 ml of ethanol is added. The mixture is evaporated to dryness, the residue is dried overnight in vacuo over sodium hydroxide and is then dissolved in 25 ml of tert. butanol and 5 ml of water whilst warming, the solution is filtered and the filtrate is lyophilized. The residue is again dried in vacuo over sodium hydroxide. 265 mg of lauric acid salt are obtained as a light powder. The solubility of the product in water at 24°C is less than 0.1% (acetic acid salt > 10%).

The record followed here is US3954975A, “Salts of ACTH-peptides and processes for their manufacture” (Ciba-Geigy Corporation, priority 1972, dated 1976).

Counter-ions that a name gives are not always drawn. Square brackets hold non-standard residues; d marks the D form. Peptide text beside a SMILES is read from it. Some results are limits rather than exact numbers.

As for `CSCC[C@H](NC(=O)CNC(=O)[C@H](Cc1ccc(O)cc1)NC(=O)[C@H](N)CO)C(=O)N[C@@H](CCC(=O)O)C(=O)N[C@@H](Cc1c[nH]cn1)C(=O)N[C@@H](Cc1ccccc1)C(=O)N[C@@H](CCCNC(=N)N)C(=O)N[C@@H](Cc1c[nH]c2ccccc12)C(=O)NCC(=O)N[C@@H](CCCCN)C(=O)N1CCC[C@H]1C(=O)N[C@H](C(=O)NCC(=O)N[C@@H](CCCCN)C(=O)N[C@@H](CCCCN)C(=O)N[C@@H](CCCCN)C(=O)N[C@@H](CCCCN)C(N)=O)C(C)C` [Example 8, D-Ser^1 -Gly^3 -Lys^17,18 -β^1-18-corticotropin-Lys^18-amide] (H-[dS]YGMEHFRWGKPVGKKKK-NH2), the “solubility in water (in words)” value is recorded as “practically insoluble in water”.
With “D-Ser^1 -Gly^3 -Lys^17,18 -corticotropin-Lys^18 -amide [Example 9]”, the “solubility in water (in words)” value is listed as “cannot be dissolved in water”.
The same measure, in the same setting: to `CSCC[C@H](NC(=O)[C@H](CO)NC(=O)[C@H](Cc1ccc(O)cc1)NC(=O)[C@H](N)CO)C(=O)N[C@@H](CCC(=O)O)C(=O)N[C@@H](Cc1c[nH]cn1)C(=O)N[C@@H](Cc1ccccc1)C(=O)N[C@@H](CCCNC(=N)N)C(=O)N[C@@H](Cc1c[nH]c2ccccc12)C(=O)NCC(=O)N[C@@H](CCCCN)C(=O)N1CCC[C@H]1C(=O)N[C@H](C(=O)NCC(=O)N[C@@H](CCCCN)C(=O)N[C@@H](CCCCN)C(=O)N[C@@H](CCCCN)C(=O)N[C@@H](CCCCN)C(N)=O)C(C)C` [Example 4, D-Ser^1 -Lys^17,18 -β^1-18-corticotropin-Lys^18-amide] belongs “water-insoluble”.
Take `CSCC[C@H](NC(=O)[C@H](CO)NC(=O)[C@H](Cc1ccc(O)cc1)NC(=O)[C@H](N)CO)C(=O)N[C@@H](CCC(=O)O)C(=O)N[C@@H](Cc1c[nH]cn1)C(=O)N[C@@H](Cc1ccccc1)C(=O)N[C@@H](CCCNC(=N)N)C(=O)N[C@@H](Cc1c[nH]c2ccccc12)C(=O)NCC(=O)N[C@@H](CCCCN)C(=O)N1CCC[C@H]1C(=O)N[C@H](C(=O)NCC(=O)N[C@@H](CCCCN)C(=O)N[C@@H](CCCCN)C(=O)N[C@@H](CCCCN)C(=O)N[C@@H](CCCCN)C(N)=O)C(C)C` [acetic acid salt, D-Ser^1 -Lys^17,18 -β^1-18-corticotropin-Lys^18-amide hexaacetate hydrate, reference compound]: the solubility in water (hydrate) is given as > 10%.
Regarding `CSCC[C@H](NC(=O)[C@H](CO)NC(=O)[C@H](Cc1ccc(O)cc1)NC(=O)[C@H](N)CO)C(=O)N[C@@H](CCC(=O)O)C(=O)N[C@@H](Cc1c[nH]cn1)C(=O)N[C@@H](Cc1ccccc1)C(=O)N[C@@H](CCCNC(=N)N)C(=O)N[C@@H](Cc1c[nH]c2ccccc12)C(=O)NCC(=O)N[C@@H](CCCCN)C(=O)N1CCC[C@H]1C(=O)N[C@H](C(=O)NCC(=O)N[C@@H](CCCCN)C(=O)N[C@@H](CCCCN)C(=O)N[C@@H](CCCCN)C(=O)N[C@@H](CCCCN)C(N)=O)C(C)C` [Example 1, D-Ser^1 -Lys^17,18 -β^1-18-corticotropin-Lys^18-amide], the solubility in water result is given as “less than 0.1%”.
With `CSCC[C@H](NC(=O)[C@H](CO)NC(=O)[C@H](Cc1ccc(O)cc1)NC(=O)[C@H](N)CO)C(=O)N[C@@H](CCC(=O)O)C(=O)N[C@@H](Cc1c[nH]cn1)C(=O)N[C@@H](Cc1ccccc1)C(=O)N[C@@H](CCCNC(=N)N)C(=O)N[C@@H](Cc1c[nH]c2ccccc12)C(=O)NCC(=O)N[C@@H](CCCCN)C(=O)N1CCC[C@H]1C(=O)N[C@H](C(=O)NCC(=O)N[C@@H](CCCCN)C(=O)N[C@@H](CCCCN)C(=O)N[C@@H](CCCCN)C(=O)N[C@@H](CCCCN)C(=O)N1CCC[C@H]1C(=O)O)C(C)C` [Example 6, D-Ser^1 -Lys^17,18 -β^1-19-corticotropin], the “solubility in water (in words)” value was “sparingly soluble in water”.
